Data: a melting point compilation (Tetko et al.; mined from patent text by program, amines drawn as free bases though some values may be those of a salt)

| melting point | SMILES |
| --- | --- |
| 260 °C | CC(=O)NCCCn1cc(-c2cc3nccnc3[nH]2)c2ccccc21 |
| 253 to 255 °C | COc1cc2ncc(C#N)c(Nc3cccc(C(N)=O)c3)c2cc1OC |
| 72 to 74 °C | O=C(O)C(=O)c1ccc(OCOc2ccccc2)cc1 |
| 125 to 126 °C | CC(OCc1ccc(-c2ccc(Cl)cc2)cc1)(C(=O)O)c1ccccc1 (centres undefined) |
| 105 to 107 °C | COc1ccc(CC(=O)c2ccc(OC)c(OC)c2)cc1OC |
| 211 to 213 °C | Cn1c(COc2ccc(CC3SC(=O)NC3=O)cc2)nc2ccc(-c3ccccc3)nc21 (centres undefined) |
| 167 to 168 °C | CCc1cccc(C(O)CC)c1NC(=O)CC1c2ccccc2Oc2ccccc21 (centres undefined) |
| 98 to 100 °C | CCOc1cc(NC(=O)C2=C(C(=O)N(CC)CC)CCCC2)ccc1Cl |
| 86 to 92 °C | CC(C)CC1CCCCCc2c1oc(=O)c(C(c1ccccc1)C1CC1)c2O (centres undefined) |
| 70 °C | COC(=O)Cc1ccc(CNC(=O)C2Cc3ccccc3N2S(=O)(=O)c2ccc(-c3cccc(Cl)c3)cc2)cc1 (centres undefined) |
| 284 to 285 °C | COc1ccc(-c2nc3ccc(C(=O)O)cc3nc2-c2ccc(OC)cc2)cc1 |
| 142 to 143 °C | Cc1ccc(-c2cccc(/C=C/C(=O)Nc3ccc(CN4CCCCC4CCO)cc3)c2)cc1 (centres undefined) |
| 143 °C | Cc1ccc2cccc(OCc3c(Cl)ccc(S(=O)(=O)N4CCCC4C(=O)NCc4ccccc4)c3Cl)c2n1 (centres undefined) |
| 135 to 136 °C | O=C(O)Cc1ccc(CCNS(=O)(=O)c2ccc3ccccc3c2)cc1 |
| 154 to 162 °C | COC(=O)Cn1c(C(=O)Nc2nc(-c3cc(OC)c(C)cc3OC)c(CCC3CCCCC3)s2)cc2cc(C)cc(C)c21 |
| 123 to 125 °C | COc1ccc2nc(-n3nc(CCCO)cc3-c3ccc(Cl)cc3)sc2c1 |
| 262 to 264 °C | CN1c2ccccc2-c2nc3ccc(/C=C/C#N)cc3c3cccc1c23 |
| 151 to 152 °C | COc1ccc(CCN2CCC(N3CCc4ccc(CNC(C)=O)cc43)CC2)cc1 |

| melting point | SMILES |
| --- | --- |
| 186 to 187 °C | CCn1ncc2c(NCC3CCCCC3)c3cc(S(C)=O)ccc3nc21 (centres undefined) |
| 181 to 183 °C | COc1ccc2cc(C#CC(C)N(O)C(N)=O)ccc2c1 (centres undefined) |
| 182 to 183 °C | Cn1nc(-c2ccccc2)c(N2CCOCC2)c(C=NO)c1=O |
| 70 to 73 °C | COc1ccc([C@@H]2[C@@H](CCCBr)C(=O)N2c2ccc(OC)cc2)cc1 |
| 147 to 148 °C | O=C(Cc1ccncc1)NC1CCCCC1 |
| 127 °C | CCOC(=O)N1CCC(n2ccc3ccccc32)CC1 |
| 157 to 158 °C | COc1cc(CNc2nc(NCCc3ccccn3)nc3ncccc23)cc(OC)c1 |
| 245 to 247 °C | COc1ccc(NC(=O)N(C)Cc2cccc3c2CN(C2CCC(=O)NC2=O)C3=O)cc1 (centres undefined) |
| 150 °C | O=C(NC[C@@H](C(=O)NO)N1CCCCC1)c1ccc(OCc2ccnc(Br)c2)cc1 |
| 68 to 72 °C | CCC(OCc1ccc(-c2ccc(Cl)cc2)cc1)(C(=O)OC)c1ccccc1 (centres undefined) |
| 89 to 91 °C | COC(=O)c1c(SC)c2cc(OC)ccc2n1C |
| 102 to 115 °C | OC(CNC1CCc2ccccc2C1)COc1ccc2ccccc2c1 (centres undefined) |
| 199 to 200 °C | O=C(O)CCCc1oc(-n2cnc3ccccc32)nc1-c1ccc(Cl)cc1 |
| 93 to 95 °C | CC(C)(C(=O)O)c1ccc(C(=O)CCCN2CCC(OC(c3ccccc3)c3ccccc3)CC2)cc1 |
| 217 to 219 °C | O=C(c1cc2cc3oc(=O)[nH]c3cc2o1)N1CCC(OCc2ccccc2)CC1 |
| 195 to 196 °C | Cc1ccc2c(c1)c1cc(-c3ccc(OCC#N)cc3)c(=O)n(C)c1n2C |
| 132 to 133 °C | Clc1cc(NCCc2ccccc2)c2ccccc2n1 |

The next lines start with the compound.

| SMILES | melting point |
| --- | --- |
| CSc1ccc(NC(=N)c2ccc(C(F)(F)F)cc2)cc1 | 144 to 146 °C |
| C=C1N(C)C(=O)OC12CCN(C(=O)NCCCC)CC2 | 129 to 130 °C |
| CCOC(=O)C=C(c1ccc(-c2ccccc2)cc1)C1(n2cncn2)CC1 | 98 to 100 °C |
| COc1ccc(C2NC(=O)C(C)S2)cc1OC (centres undefined) | 151 to 152 °C |
| O=C(/C=C/c1c[nH]c2ccccc12)c1ccccc1 | 167 to 170 °C |
| CCOCCOC(=O)C(=O)Nc1nc(-c2c(C)cc(C)cc2C)cs1 | 124 to 125 °C |
| CCC(=NO)c1nc(C)nc2c1c(C)c(C)n2-c1c(C)cc(C)cc1C | 84 to 87 °C |
| COc1cc2nc(-c3ccc(Cl)cc3)nc(Cl)c2cc1OC | 204 to 206 °C |
| CCOP(=O)(OCC)C(P(=O)(OCC)OCC)S(=O)(=O)c1cc(C(C)(C)C)c(O)c(C(C)(C)C)c1 | 118 to 120 °C |
| CC(C)n1ncnc1COc1nn2c(-c3cc(F)ccc3F)nncc2c1C(C)(C)C | 163 °C |
| O=C(Nc1c(C(O)(C(F)(F)F)C(F)(F)F)ccc2ccccc12)c1ccc(F)cc1 | 135 to 136 °C |
| CC(C)COc1ccc(S(C)(=O)=O)cc1C(=O)O | 149 to 153 °C |
| N[C@@]1(C(=O)O)C[C@H](NC(=O)Nc2c(Cl)cccc2Cl)[C@H]2[C@H](C(=O)O)[C@H]21 (relative stereo) | > 250 °C |
| NC(Cc1ccccc1)C(O)C(N)Cc1ccccc1 (centres undefined) | 106 to 107 °C |
| Cc1ccc(C(C)n2[nH]c(C)cc2=O)cc1 (centres undefined) | 144 to 146 °C |
| CN(C)C(=O)c1c(C(=O)CBr)c2cc(Cl)ccc2n1C(=O)OC(C)(C)C | 110 to 115 °C |
| COc1cccc2c1CCCC2CN=[N+]=[N-] (centres undefined) | 65 to 66 °C |

| SMILES | melting point |
| --- | --- |
| COC(=O)c1ccccc1N(c1ccccc1)C1(c2ccc(N(C)C)cc2)OC(=O)c2ccccc21 (centres undefined) | 92.5 to 102 °C |
| COc1ccccc1NC(=O)Nc1nc(Nc2ccccc2-c2ccccc2)nc(N(CCC(=O)O)CCc2c[nH]c3ccccc23)n1 | 115 to 120 °C |
| COCc1cc2c(C(=O)Nc3c(C)noc3C)ccc(OC)c2o1 | 168 to 170 °C |
| Cc1cc(-c2noc(C(F)(F)F)n2)cc(C)c1OCCCc1ccc(=O)[nH]c1 | 128 to 130 °C |
| CCN(CC)CCc1nc(Cn2cnc3c2c(=O)n(C)c(=O)n3C)no1 | 69 to 70 °C |
| CCCCCCCCCCOc1cc(OCCCCCCCCCC)cc(N(CC(=O)OC)CC(=O)OC)c1 | 36 to 38 °C |
| Cc1nnc2n1-c1ccccc1NC2C (centres undefined) | 172 to 173 °C |
| CCOC(=O)c1cc(=O)c(Cl)c(-c2ccccc2)o1 | 103 to 105 °C |
| COc1ccccc1NS(=O)(=O)c1cccc([N+](=O)[O-])c1 | 130 to 132 °C |
| CCC(C)(C)NC(=O)n1nc(C)n(NC)c1=O | 98 °C |
| Cc1c([N+](=O)[O-])ccnc1CSc1nc2ccc(C(F)(F)F)cc2[nH]1 | 192 to 193 °C |
| CCC12CCC3C4CCC(=O)C=C4CCC3C1CCC2O (centres undefined) | 147 to 149 °C |
| Cc1cc2[nH]c(=O)c3cnc(O)cc3n2n1 | > 300 °C |
| OC(COc1cccnc1)c1cccc(OCc2ccc3ccccc3n2)c1 (centres undefined) | 103 to 104 °C |
| COc1ccc(C#N)c(C(=O)Cl)c1 | 192 to 194 °C |
| CS(=O)(=O)OCCN(CCOS(C)(=O)=O)c1cc(C(=O)O)c([N+](=O)[O-])cc1[N+](=O)[O-] | 200 to 210 °C |
| C#CCOC(=O)C1=C(C)NC(C)=C(C(=O)OCC)C1c1ccccc1C(F)(F)F (centres undefined) | 130 °C |
